For this data set, the system named is moderately differentiated intrahepatic cholangiocarcinoma. Briefly: Clinical case: treatment of a patient with metastatic intrahepatic cholangiocarcinoma, drugs chosen by Oncobox rating. Type of data set: in vivo, human. An excerpt: The patient was diagnosed in October 2015 with the following symptoms: moderate body weight loss, pain in right hypochondrium, loss of appetite and asthenia, with 70% Karnovsky index. […] The tumour was not surgically excised due to advanced stage, several intrahepatic masses and lung metastasis.
At first, total RNA was isolated from tumour sample and used to measure expression levels for 2,163 genes with CustomArray Inc. (USA) equipment using the microarray hybridization method. These 2,163 genes participate in major human signalling pathways associated with cancer, and also act as the molecular targets of anti-cancer medicinal products. Liver samples without pathological characteristics were taken from healthy donors and used as normal tissue controls. Using the Oncobox algorithm, the rating of target drugs was formed according to the BES values obtained (Table 2).

Take `CNC(=O)c1cc(Oc2ccc(NC(=O)Nc3ccc(Cl)c(C(F)(F)F)c3)cc2)ccn1` [Sorafenib]: the “tumour status on MRI according to RECIST classification” value (Sorafenib from May 2016, MRI October 2016) is “stable disease”. Moreover, the period till progression entry (Sorafenib from May 2016, progressing tumour on MRI January 2017) was “about 6 months”. Also, the “symptom change after treatment” value (after treatment with Sorafenib) is on record as “pain elimination in right hypochondrium”. In addition, where the note is “patient on Sorafenib”, the adverse effects entry is “reddening, edema, pains in palms of the hands and bottoms of the feet”.

For the origin of these results see patent publication US11614434B2, “Genetic information analysis platform oncobox” (Obschestvo s ogranichennoi otvetstvennostyu “Oncobox”, priority 2018, dated 2023).
